# According to US20070027143A1, “Novel substituted 2,3-benzodiazepine derivatives” (priority 2003, published 2007):
row,melting point,SMILES
1,> 260 °C (dec.),"CC1Cc2cc3c(cc2C(c2ccc(N)cc2)=NN1c1nc(C(=O)O)cs1)OCO3 (racemic) [Example 106, (±)-5-(4-Aminophenyl)-7-(4-carboxy-thiazol-2-yl)-8-methyl-8,9-dihydro-7H-1,3-dioxolo-[4,5-h][2,3]benzodiazepine]"
2,240 to 242 °C,"Cc1nc(N2N=C(c3ccc(N)cc3)c3cc4c(cc3CC2C)OCO4)sc1C (racemic) [Example 65, (±)-5-(4-Aminophenyl)-8-methyl-7-(4,5-dimethyl-thiazol-2-yl)-8,9-dihydro-7H-1,3-dioxolo-[4,5-h][2,3]benzodiazepine]"
3,124 to 130 °C,"CC1Cc2cc3c(cc2C(c2ccc(N)cc2)=NN1C1=NC(=O)C(C)(C)S1)OCO3 (racemic) [Example 193, (±)-5-(4-Aminophenyl)-8-methyl-7-(5,5-dimethyl-4-oxo-4,5-dihydrothiazol-2-yl)-8,9-dihydro-7H-1,3-dioxolo-[4,5-h][2,3]benzodiazepine]"
4,143 to 145 °C,"CC(=O)Nc1ccc(C2=NN(C3=NCCS3)[C@H](C)Cc3cc4c(cc32)OCO4)cc1 [Example 125, (R)-5-(4-Acetylaminophenyl)-7-(4,5-dihydro-thiazol-2-yl)-8-methyl-8,9-dihydro-7H-1,3-dioxolo-[4,5-h][2,3]benzodiazepine]"
5,187 to 190 °C,"CC1Cc2cc3c(cc2C(c2ccc(N)cc2)=NN1c1nccs1)OCO3 (racemic) [Example 60, (±)-5-(4-Aminophenyl)-8-methyl-7-(2-thiazolyl)-8,9-dihydro-7H-1,3-dioxolo[4,5-h][2,3]benzodiazepine]"
6,228 to 230 °C,"CC1Cc2cc3c(cc2C(c2ccc(N)cc2)=NN1c1nnc(-c2ccccc2)s1)OCO3 (racemic) (hydrate or solvate) [Example 91, (±)-5-(4-Aminophenyl)-7-(5-phenyl-1,3,4-thiadiazol-2-yl)-8-methyl-8,9-dihydro-7H-1,3-dioxolo-[4,5-h][2,3]benzodiazepine]"
7,148 to 154 °C,"CC(=O)Nc1ccc(C2=NN(C3=NCCS3)[C@@H](C)Cc3cc4c(cc32)OCO4)cc1 [Example 126, (S)-5-(4-Acetylaminophenyl)-7-(4,5-dihydro-thiazol-2-yl)-8-methyl-8,9-dihydro-7H-1,3-dioxolo-[4,5-h][2,3]benzodiazepine]"
8,226 to 228 °C,"CC1Cc2ccc(Cl)cc2C(c2ccc(N)cc2)=NN1C1=NC(=O)CS1 (racemic) [Example 80, (±)-1-(4-Aminophenyl)-3-(4,5-dihydro-4-oxo-thiazol-2-yl)-8-chloro-4-methyl-4,5-dihydro-3H-[2,3]benzodiazepine]"
9,132 to 135 °C,"Cc1nc(N2N=C(c3ccc(N)cc3)c3cc4c(cc3CC2C)OCO4)cs1 (racemic) [Example 110, (±)-5-(4-Aminophenyl)-8-methyl-7-(2-methyl-thiazol-4-yl)-8,9-dihydro-7H-1,3-dioxolo-[4,5-h][2,3]benzodiazepine]"
10,263 to 264 °C,"CC1Cc2cc3c(cc2C(c2ccc(N)cc2)=NN1c1n[nH]c(=O)s1)OCO3 (racemic) [Example 101, (±)-5-(4-Aminophenyl)-8-methyl-7-(5-oxo-4,5-dihydro-1,3,4-thiadiazol-2-yl)-8,9-dihydro-7H-1,3-dioxolo-[4,5-h][2,3]benzodiazepine]"
11,165 to 167 °C,"Cc1cnc(N2N=C(c3ccc(N)cc3)c3cc4c(cc3CC2C)OCO4)s1 (racemic) [Example 64, (±)-5-(4-Aminophenyl)-8-methyl-7-(5-methyl-thiazol-2-yl)-8,9-dihydro-7H-1,3-dioxolo-[4,5-h][2,3]benzodiazepine]"
12,164 to 166 °C,"CC1Cc2cc3c(cc2C(c2ccc(N)cc2)=NN1c1ccc(Cl)nn1)OCO3 (racemic) [Example 112, (±)-5-(4-Aminophenyl)-7-(3-chloropyridazin-6-yl)-8-methyl-8,9-dihydro-7H-1,3-dioxolo-[4,5-h][2,3]benzodiazepine]"
13,172 to 176 °C,"CC1Cc2cc3c(cc2C(c2ccc(N)cc2)=NN1C1=NNC(=O)CS1)OCO3 (racemic) [Example 100, (±)-5-(4-Aminophenyl)-7-(5,6-dihydro-5-oxo-4H-1,3,4-thiadiazin-2-yl)-8-methyl-8,9-dihydro-7H-1,3-dioxolo[4,5-h][2,3]benzodiazepine]"

# Further lines, the compound ahead of its results:
row,SMILES,melting point
1,"CC1Cc2cc3c(cc2C(c2ccc([N+](=O)[O-])cc2)=NN1c1nc(=O)n(C2CC2)s1)OCO3 (racemic) [Example 47, (±)-7-(2-Cyclopropyl-3-oxo-2,3-dihydro-1,2,4-thiadiazol-5-yl)-8-methyl-5-(4-nitrophenyl)-8,9-dihydro-7H-1,3-dioxolo[4,5-h][2,3]benzodiazepine]",246 to 247 °C
2,"Cc1nnc(N2N=C(c3cccc(N)c3)c3cc4c(cc3CC2C)OCO4)s1 (racemic) [Example 97, (±)-5-(3-Aminophenyl)-8-methyl-7-(5-methyl-1,3,4-thiadiazol-2-yl)-8,9-dihydro-7H-1,3-dioxolo-[4,5-h][2,3]benzodiazepine]",197 to 198 °C
3,"CCCCCCc1nnc(N2N=C(c3ccc(N)c(C)c3)c3cc4c(cc3C[C@H]2C)OCO4)s1 [Example 178, (R)-5-(4-Amino-3-methylphenyl)-7-(5-hexyl-1,3,4-thiadiazol-2-yl)-8-methyl-8,9-dihydro-7H-1,3-dioxolo[4,5-h][2,3]benzodiazepine]",180 to 181 °C
4,"CC1Cc2cc3c(cc2C(c2ccc([N+](=O)[O-])cc2)=NN1c1nnc(CCl)s1)OCO3 (racemic) [Example 34, (±)-7-(5-Chloromethyl-1,3,4-thiadiazol-2-yl)-8-methyl-5-(4-nitrophenyl)-8,9-dihydro-7H-1,3-dioxolo[4,5-h][2,3]benzodiazepine]",210 to 211 °C
5,"Cc1cc(C2=NN(c3nnc(C4CC4)s3)[C@H](C)Cc3cc4c(cc32)OCO4)ccc1[N+](=O)[O-] [Example 139, (R)-7-(5-Cyclopropyl-1,3,4-thiadiazol-2-yl)-8-methyl-5-(3-methyl-4-nitrophenyl)-8,9-dihydro-7H-1,3-dioxolo[4,5-h][2,3]benzodiazepine]",126 to 130 °C
6,"Cc1cc(C2=NN(c3nnc(CN)s3)[C@H](C)Cc3cc4c(cc32)OCO4)ccc1N [Example 176, (R)-5-(4-Amino-3-methylphenyl)-7-(5-aminomethyl-1,3,4-thiadiazol-2-yl)-8-methyl-8,9-dihydro-7H-1,3-dioxolo[4,5-h][2,3]benzodiazepine]",139 to 140 °C
7,"CC(=O)OCc1nnc(N2N=C(c3ccc([N+](=O)[O-])c(C)c3)c3cc4c(cc3C[C@H]2C)OCO4)s1 [Example 141, (R)-7-(5-Acetoxymethyl-1,3,4-thiadiazol-2-yl)-8-methyl-5-(3-methyl-4-nitrophenyl)-8,9-dihydro-7H-1,3-dioxolo[4,5-h][2,3]benzodiazepine]",110 to 115 °C
8,"CC1=Cc2cc3c(cc2C(c2ccc(C)c(N)c2)=NN1c1nnc(C)s1)OCO3 [Example 96, (±)-5-(3-Amino-4-methylphenyl)-8-methyl-7-(5-methyl-1,3,4-thiadiazol-2-yl)-7H-1,3-dioxolo-[4,5-h][2,3]benzodiazepine]",125 °C
9,"COc1ccc2c(c1)C(c1ccc(N)cc1)=NN(c1nnc(C)s1)C(C)C2 (racemic) [Example 98, (±)-1-(4-Aminophenyl)-4-methyl-3-(5-methyl-1,3,4-thiadiazol-2-yl)-8-methoxy-4,5-dihydro-3H-[2,3]benzodiazepine]",180 to 184 °C
10,"CC(=O)Nc1ccc(C2=NN(C3=NCCO3)C(C)Cc3cc4c(cc32)OCO4)cc1 (racemic) [Example 127, (±)-5-(4-Acetylaminophenyl)-7-(4,5-dihydro-oxazol-2-yl)-8-methyl-8,9-dihydro-7H-1,3-dioxolo-[4,5-h][2,3]benzodiazepine]",124 to 128 °C
11,"COc1ccc2c(c1)C(c1ccc(N)cc1)=NN(c1nccs1)C(C)C2 (racemic) [Example 76, (±)-1-(4-Aminophenyl)-4-methyl-8-methoxy-3-(2-thiazolyl)-4,5-dihydro-3H-[2,3]benzodiazepine]",105 to 107 °C
12,"Cc1cc(C2=NN(c3nccs3)[C@H](C)Cc3cc4c(cc32)OCO4)cc(C)c1N [Example 189, (R)-5-(4-Amino-3,5-dimethylphenyl)-8-methyl-7-(thiazol-2-yl)-8,9-dihydro-7H-1,3-dioxolo-[4,5-h][2,3]benzodiazepine]",202 to 203 °C
13,"Cc1nnc(N2N=C(c3cc(C)c(N)c(C)c3)c3cc4c(cc3C[C@H]2C)OCO4)s1 [Example 190, (R)-5-(4-Amino-3,5-dimethylphenyl)-8-methyl-7-(5-methyl-1,3,4-thiadiazol-2-yl)-8,9-dihydro-7H-1,3-dioxolo[4,5-h][2,3]benzodiazepine]",280 to 281 °C
14,"CC(=O)Nc1ccc(C2=NN(c3nc(C)cs3)C(C)Cc3cc4c(cc32)OCO4)cc1 (racemic) (hydrate or solvate) [Example 121, (±)-5-(4-Acetylaminophenyl)-8-methyl-7-(4-methyl-thiazol-2-yl)-8,9-dihydro-7H-1,3-dioxolo-[4,5-h][2,3]benzodiazepine]",236 to 238 °C
15,"CCOC(=O)c1nnc(N2N=C(c3ccc(N)c(C)c3)c3cc4c(cc3C[C@H]2C)OCO4)s1 [Example 175, (R)-5-(4-Amino-3-methylphenyl)-7-(5-ethoxycarbonyl-1,3,4-thiadiazol-2-yl)-8-methyl-8,9-dihydro-7H-1,3-dioxolo[4,5-h][2,3]benzodiazepine]",135 to 140 °C
16,"CC(=O)Nc1ccc(C2=NN(c3ncccn3)C(C)Cc3cc4c(cc32)OCO4)cc1 (racemic) [Example 128, (±)-5-(4-Acetylaminophenyl)-8-methyl-7-(2-pyrimidinyl)-8,9-dihydro-7H-1,3-dioxolo-[4,5-h][2,3]benzodiazepine]",162 to 163 °C
17,"COCc1nnc(N2N=C(c3ccc(N)c(Cl)c3)c3cc4c(cc3C[C@H]2C)OCO4)s1 [Example 183, (R)-5-(4-Amino-3-chlorophenyl)-8-methyl-7-(5-methoxymethyl-1,3,4-thiadiazol-2-yl)-8,9-dihydro-7H-1,3-dioxolo[4,5-h][2,3]benzodiazepine]",105 to 109 °C
